The values that follow are results of earlier work, collected in patent US20220409628A1, “18-MC FOR TREATING OBESITY” (Mind Medicine, Inc., priority 2021, published 2022).

For data set [1] the following is noted: in vivo.
Data set [2] has as its system rats. Particulars: unlimited access to sucrose (30%), chronic treatment 20 mg/kg i.p.
For data set [3] the following is noted: U.S. Pat. No. 6,780,871 to Glick, et al.
Data set [4] deals with rats. The conditions noted are these: acute administration.
The test system of data set [5] is rats. The conditions noted are these: acute administration, 10-40 mg/kg i.p.
The test system of data set [6] is extracellular dopamine in the nucleus accumbens. Particulars: both 20 and 40 mg/kg, ghrelin 2 μg intraventral tegmental area.
Another data set has as its system female rats. Particulars: pretreatment 20 mg/kg i.p., ghrelin 1 μg lateral ventricle.
The subject of a further data set is male rats. Particulars: repeated administration 20 mg/kg i.p.

Take `COCC[C@H]1CC2CN3CCc4c([nH]c5ccccc45)[C@](C(=O)OC)(C2)[C@H]13` [18-MC, 18-methoxycoronaridine]: the “conditioned taste aversion to sucrose” value in data set [1] is given as “does not induce”. Further, in the data set with rats [2], the consumption of sucrose result was “reduced consumption of sucrose”, the fat deposition result is recorded as “decreased fat deposition”, the food intake entry is recorded as “not altering food intake” and the “sucrose-induced increases in body weight” value is recorded as “prevented sucrose-induced increases in body weight”. For the same molecule, in data set [3], the “self-administration of morphine, cocaine, methamphetamine, nicotine, and sucrose” value is listed as “reducing self-administration”. In addition, the “ad libitum ingestion of sucrose, saccharin, and saline” value in the data set on rats [4] (10-40 mg/kg i.p.) is “decreased ad libitum ingestion”. The “consumption of water when palatable fluids were not available” value with rats [4] (highest dose) was “reduced consumption of water”. For the same molecule, the “operant responding for sucrose” value in the data set with rats [5] is reported as “reduced operant responding for sucrose”. The “ghrelin-induced increases in extracellular dopamine in the nucleus accumbens” value in data set [6] was “prevented”. For the same molecule, the “ghrelin-induced increases in sucrose (5%) intake” value in the data set with female rats is “blocked ghrelin-induced increases”. In addition, in the data set on ghrelin-treated rats, the deposition of fat entry is “no effect”; the “serum levels of glucose, triglycerides, and cholesterol” value is on record as “no effect”. The weight gain result in the data set with male rats (both sucrose-consuming and control animals) is “attenuated weight gain”. The “food or fluid intake” value with male rats is reported as “without altering food or fluid intake”.
